ChEMBL document CHEMBL4507301 (2021)

Legend:
[1] = biological target: Tyrosine-protein kinase Blk (Homo sapiens) (UniProt P51451); conditions: Compound concentration 1000.0 nM
[2] = biological target: Calcium/calmodulin-dependent protein kinase type 1 (Homo sapiens) (UniProt Q14012); conditions: Compound concentration 1000.0 nM
[3] = biological target: Cyclin-dependent kinase 11B (Homo sapiens) (UniProt P21127); conditions: Compound concentration 1000.0 nM
[4] = biological target: Cyclin-dependent kinase 9 (Homo sapiens) (UniProt P50750); conditions: Compound concentration 1000.0 nM
[5] = biological target: Citron Rho-interacting kinase (Homo sapiens) (UniProt O14578); conditions: Compound concentration 1000.0 nM
[6] = biological target: Casein kinase I isoform alpha-like (Homo sapiens) (UniProt Q8N752); conditions: Compound concentration 1000.0 nM
[7] = biological target: Casein kinase I isoform gamma-3 (Homo sapiens) (UniProt Q9Y6M4); conditions: Compound concentration 1000.0 nM
[8] = system: Epidermal growth factor receptor (Homo sapiens), P00533 [UNDEFINED MUTATION]; conditions: Compound concentration 1000.0 nM
[9] = biological target: Ephrin type-B receptor 3 (Homo sapiens) (UniProt P54753); conditions: Compound concentration 1000.0 nM
[10] = biological target: Tyrosine-protein kinase Fer (Homo sapiens) (UniProt P16591); conditions: Compound concentration 1000.0 nM
[11] = biological target: Tyrosine-protein kinase Fyn (Homo sapiens) (UniProt P06241); conditions: Compound concentration 1000.0 nM
[12] = biological target: Insulin receptor-related protein (Homo sapiens) (UniProt P14616); conditions: Compound concentration 1000.0 nM
[13] = biological target: Tyrosine-protein kinase ITK/TSK (Homo sapiens) (UniProt Q08881); conditions: Compound concentration 1000.0 nM
[14] = system: Mast/stem cell growth factor receptor Kit (Homo sapiens), P10721 [A829P]; conditions: Compound concentration 1000.0 nM
[15] = system: Mast/stem cell growth factor receptor Kit (Homo sapiens), P10721 [D816H]; conditions: Compound concentration 1000.0 nM
[16] = biological target: Tyrosine-protein kinase Lyn (Homo sapiens) (UniProt P07948); conditions: Compound concentration 1000.0 nM
[17] = biological target: Dual specificity mitogen-activated protein kinase kinase 3 (Homo sapiens) (UniProt P46734); conditions: Compound concentration 1000.0 nM
[18] = biological target: Maternal embryonic leucine zipper kinase (Homo sapiens) (UniProt Q14680); conditions: Compound concentration 1000.0 nM
[19] = system: Hepatocyte growth factor receptor (Homo sapiens), P08581 [M1250T]; conditions: Compound concentration 1000.0 nM
[20] = system: Hepatocyte growth factor receptor (Homo sapiens), P08581 [Y1235D]; conditions: Compound concentration 1000.0 nM
[21] = biological target: Serine/threonine-protein kinase MRCK beta (Homo sapiens) (UniProt Q9Y5S2); conditions: Compound concentration 1000.0 nM
[22] = biological target: Serine/threonine-protein kinase 38 (Homo sapiens) (UniProt Q15208); conditions: Compound concentration 1000.0 nM
[23] = biological target: Serine/threonine-protein kinase PAK 2 (Homo sapiens) (UniProt Q13177); conditions: Compound concentration 1000.0 nM
[24] = biological target: Serine/threonine-protein kinase PAK 3 (Homo sapiens) (UniProt O75914); conditions: Compound concentration 1000.0 nM
[25] = biological target: Serine/threonine-protein kinase PAK 6 (Homo sapiens) (UniProt Q9NQU5); conditions: Compound concentration 1000.0 nM
[26] = biological target: Phosphatidylinositol 4,5-bisphosphate 3-kinase catalytic subunit alpha isoform (Homo sapiens) (UniProt P42336); conditions: Compound concentration 1000.0 nM
[27] = system: Phosphatidylinositol 4,5-bisphosphate 3-kinase catalytic subunit alpha isoform (Homo sapiens), P42336 [C420R]; conditions: Compound concentration 1000.0 nM
[28] = system: Phosphatidylinositol 4,5-bisphosphate 3-kinase catalytic subunit alpha isoform (Homo sapiens), P42336 [E542K]; conditions: Compound concentration 1000.0 nM
[29] = system: Phosphatidylinositol 4,5-bisphosphate 3-kinase catalytic subunit alpha isoform (Homo sapiens), P42336 [E545A]; conditions: Compound concentration 1000.0 nM
[30] = biological target: cAMP-dependent protein kinase catalytic subunit beta (Homo sapiens) (UniProt P22694); conditions: Compound concentration 1000.0 nM
[31] = biological target: Serine/threonine-protein kinase PLK1 (Homo sapiens) (UniProt P53350); conditions: Compound concentration 1000.0 nM
[32] = biological target: Serine/threonine-protein kinase PLK4 (Homo sapiens) (UniProt O00444); conditions: Compound concentration 1000.0 nM
[33] = biological target: Ribosomal protein S6 kinase alpha-6 (Homo sapiens) (UniProt Q9UK32); conditions: Compound concentration 1000.0 nM
[34] = biological target: Serine/threonine-protein kinase SBK1 (Homo sapiens) (UniProt Q52WX2); conditions: Compound concentration 1000.0 nM
[35] = biological target: Uncharacterized serine/threonine-protein kinase SBK3 (Homo sapiens) (UniProt P0C264); conditions: Compound concentration 1000.0 nM
[36] = biological target: Serine/threonine-protein kinase SIK2 (Homo sapiens) (UniProt Q9H0K1); conditions: Compound concentration 1000.0 nM
[37] = biological target: STE20/SPS1-related proline-alanine-rich protein kinase (Homo sapiens) (UniProt Q9UEW8); conditions: Compound concentration 1000.0 nM
[38] = biological target: Serine/threonine-protein kinase tousled-like 2 (Homo sapiens) (UniProt Q86UE8); conditions: Compound concentration 1000.0 nM
[39] = biological target: Serine/threonine-protein kinase ULK3 (Homo sapiens) (UniProt Q6PHR2); conditions: Compound concentration 1000.0 nM
[40] = biological target: Tyrosine-protein kinase Yes (Homo sapiens) (UniProt P07947); conditions: Compound concentration 1000.0 nM
[41] = biological target: Serine/threonine-protein kinase 25 (Homo sapiens) (UniProt O00506); conditions: Compound concentration 1000.0 nM
[42] = biological target: 5-hydroxytryptamine receptor 1D (Homo sapiens) (UniProt P28221); conditions: Compound concentration 10.0 uM
[43] = biological target: D(3) dopamine receptor (Homo sapiens) (UniProt P35462); conditions: Compound concentration 10.0 uM
[44] = biological target: D(1B) dopamine receptor (Homo sapiens) (UniProt P21918); conditions: Compound concentration 10.0 uM
[45] = biological target: Histamine H2 receptor (Homo sapiens) (UniProt P25021); conditions: Compound concentration 10.0 uM

Sequence of D(1B) dopamine receptor (Homo sapiens) (P21918 whole entry): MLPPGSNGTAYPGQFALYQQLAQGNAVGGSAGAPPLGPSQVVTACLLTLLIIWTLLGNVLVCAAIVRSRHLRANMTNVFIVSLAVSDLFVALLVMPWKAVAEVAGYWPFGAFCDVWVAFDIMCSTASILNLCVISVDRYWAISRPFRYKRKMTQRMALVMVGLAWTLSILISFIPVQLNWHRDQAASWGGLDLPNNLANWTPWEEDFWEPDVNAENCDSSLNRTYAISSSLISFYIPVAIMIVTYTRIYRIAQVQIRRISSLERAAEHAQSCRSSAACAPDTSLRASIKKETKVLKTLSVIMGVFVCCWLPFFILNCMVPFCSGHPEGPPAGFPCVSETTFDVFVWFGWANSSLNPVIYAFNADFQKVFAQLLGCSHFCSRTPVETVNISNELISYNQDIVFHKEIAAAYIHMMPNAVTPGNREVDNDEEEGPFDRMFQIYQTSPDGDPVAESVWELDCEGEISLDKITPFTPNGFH
Sequence of Serine/threonine-protein kinase PLK4 (Homo sapiens) (O00444 whole entry): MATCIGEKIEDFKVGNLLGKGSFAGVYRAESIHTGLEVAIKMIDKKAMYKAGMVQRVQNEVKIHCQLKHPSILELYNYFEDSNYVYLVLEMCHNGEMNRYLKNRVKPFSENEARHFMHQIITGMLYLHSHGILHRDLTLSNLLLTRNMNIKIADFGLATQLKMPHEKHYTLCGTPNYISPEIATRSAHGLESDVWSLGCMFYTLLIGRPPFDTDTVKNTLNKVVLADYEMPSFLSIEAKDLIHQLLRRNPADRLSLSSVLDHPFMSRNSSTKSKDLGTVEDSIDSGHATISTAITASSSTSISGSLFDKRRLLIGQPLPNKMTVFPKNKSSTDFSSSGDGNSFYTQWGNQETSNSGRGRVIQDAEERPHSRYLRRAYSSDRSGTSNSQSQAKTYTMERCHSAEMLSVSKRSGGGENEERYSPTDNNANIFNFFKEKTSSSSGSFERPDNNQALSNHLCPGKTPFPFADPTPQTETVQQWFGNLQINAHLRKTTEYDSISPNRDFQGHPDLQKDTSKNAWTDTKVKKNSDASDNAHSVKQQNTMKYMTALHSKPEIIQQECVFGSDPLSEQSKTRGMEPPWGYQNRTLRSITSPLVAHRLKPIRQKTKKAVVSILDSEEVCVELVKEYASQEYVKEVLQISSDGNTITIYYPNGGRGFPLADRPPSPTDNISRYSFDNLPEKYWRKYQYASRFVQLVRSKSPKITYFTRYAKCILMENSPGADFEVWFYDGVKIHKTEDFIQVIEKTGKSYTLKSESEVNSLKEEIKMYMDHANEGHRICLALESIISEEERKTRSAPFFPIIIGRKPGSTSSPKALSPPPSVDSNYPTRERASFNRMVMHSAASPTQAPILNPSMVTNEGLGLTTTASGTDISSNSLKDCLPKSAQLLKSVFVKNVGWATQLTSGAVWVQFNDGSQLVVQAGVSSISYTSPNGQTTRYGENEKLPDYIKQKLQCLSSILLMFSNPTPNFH
Sequence of Tyrosine-protein kinase Fyn (Homo sapiens) (P06241 2-537 limits assumed): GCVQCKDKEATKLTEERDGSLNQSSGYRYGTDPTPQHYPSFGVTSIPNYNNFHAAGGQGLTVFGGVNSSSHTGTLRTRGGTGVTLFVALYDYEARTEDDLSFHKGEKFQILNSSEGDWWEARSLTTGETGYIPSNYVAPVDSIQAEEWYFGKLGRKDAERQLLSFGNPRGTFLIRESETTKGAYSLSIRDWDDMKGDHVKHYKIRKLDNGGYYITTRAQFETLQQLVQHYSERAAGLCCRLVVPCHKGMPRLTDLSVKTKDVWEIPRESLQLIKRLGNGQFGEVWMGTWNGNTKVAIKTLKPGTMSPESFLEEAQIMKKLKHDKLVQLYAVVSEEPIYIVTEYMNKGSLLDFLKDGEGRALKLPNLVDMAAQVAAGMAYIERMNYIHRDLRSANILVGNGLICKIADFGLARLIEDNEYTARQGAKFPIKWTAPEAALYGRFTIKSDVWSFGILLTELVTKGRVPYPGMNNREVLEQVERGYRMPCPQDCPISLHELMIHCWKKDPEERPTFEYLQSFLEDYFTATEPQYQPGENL
Sequence of Serine/threonine-protein kinase PLK1 (Homo sapiens) (P53350 whole entry): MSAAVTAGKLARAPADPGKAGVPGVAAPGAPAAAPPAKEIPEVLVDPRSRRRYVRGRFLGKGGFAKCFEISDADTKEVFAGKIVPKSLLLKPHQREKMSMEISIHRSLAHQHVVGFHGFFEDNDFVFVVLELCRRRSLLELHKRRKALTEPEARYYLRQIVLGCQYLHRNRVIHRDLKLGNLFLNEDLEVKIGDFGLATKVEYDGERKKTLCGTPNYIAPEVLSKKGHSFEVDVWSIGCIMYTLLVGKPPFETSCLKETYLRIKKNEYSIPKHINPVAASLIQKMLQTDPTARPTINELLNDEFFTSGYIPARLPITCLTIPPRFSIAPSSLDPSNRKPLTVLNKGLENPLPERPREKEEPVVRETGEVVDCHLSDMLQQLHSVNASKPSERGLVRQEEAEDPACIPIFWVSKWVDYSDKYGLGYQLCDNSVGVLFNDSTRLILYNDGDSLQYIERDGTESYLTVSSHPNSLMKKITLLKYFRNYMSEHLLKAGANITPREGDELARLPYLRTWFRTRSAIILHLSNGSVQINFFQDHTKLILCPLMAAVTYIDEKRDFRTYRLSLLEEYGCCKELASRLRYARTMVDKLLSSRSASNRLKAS
Sequence of Tyrosine-protein kinase Lyn (Homo sapiens) (P07948 2-512 limits assumed): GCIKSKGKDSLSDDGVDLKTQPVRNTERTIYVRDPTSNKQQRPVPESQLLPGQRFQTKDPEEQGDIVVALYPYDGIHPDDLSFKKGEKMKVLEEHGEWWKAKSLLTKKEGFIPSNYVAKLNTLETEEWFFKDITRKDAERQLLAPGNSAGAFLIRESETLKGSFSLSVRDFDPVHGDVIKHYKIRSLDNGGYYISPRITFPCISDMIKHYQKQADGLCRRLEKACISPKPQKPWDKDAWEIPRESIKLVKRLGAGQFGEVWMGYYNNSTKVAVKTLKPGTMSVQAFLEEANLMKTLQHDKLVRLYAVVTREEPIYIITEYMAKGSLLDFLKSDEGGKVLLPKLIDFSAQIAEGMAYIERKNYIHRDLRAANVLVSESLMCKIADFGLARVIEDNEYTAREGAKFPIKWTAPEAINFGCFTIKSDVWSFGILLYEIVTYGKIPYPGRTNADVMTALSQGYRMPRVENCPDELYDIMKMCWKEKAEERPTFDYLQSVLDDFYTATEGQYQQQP
Sequence of Maternal embryonic leucine zipper kinase (Homo sapiens) (Q14680 whole entry, looked up): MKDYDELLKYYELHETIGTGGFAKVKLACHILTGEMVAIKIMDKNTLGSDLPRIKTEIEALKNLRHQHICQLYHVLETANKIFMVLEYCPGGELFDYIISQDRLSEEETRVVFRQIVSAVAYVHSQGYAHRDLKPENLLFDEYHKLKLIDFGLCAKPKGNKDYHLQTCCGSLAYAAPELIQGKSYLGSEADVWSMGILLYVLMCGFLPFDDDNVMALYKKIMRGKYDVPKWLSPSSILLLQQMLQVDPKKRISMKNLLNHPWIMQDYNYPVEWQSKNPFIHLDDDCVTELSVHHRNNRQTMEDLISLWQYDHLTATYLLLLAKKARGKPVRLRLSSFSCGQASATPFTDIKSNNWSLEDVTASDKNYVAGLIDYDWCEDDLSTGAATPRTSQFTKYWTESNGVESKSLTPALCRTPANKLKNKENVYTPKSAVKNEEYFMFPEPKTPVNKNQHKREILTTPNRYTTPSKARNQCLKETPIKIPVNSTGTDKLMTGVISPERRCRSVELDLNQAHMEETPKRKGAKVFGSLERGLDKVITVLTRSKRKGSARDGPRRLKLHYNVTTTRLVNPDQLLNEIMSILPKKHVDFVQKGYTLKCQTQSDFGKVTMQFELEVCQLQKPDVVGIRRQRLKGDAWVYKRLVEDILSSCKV
Sequence of Insulin receptor-related protein (Homo sapiens) (P14616 27-742 limits assumed): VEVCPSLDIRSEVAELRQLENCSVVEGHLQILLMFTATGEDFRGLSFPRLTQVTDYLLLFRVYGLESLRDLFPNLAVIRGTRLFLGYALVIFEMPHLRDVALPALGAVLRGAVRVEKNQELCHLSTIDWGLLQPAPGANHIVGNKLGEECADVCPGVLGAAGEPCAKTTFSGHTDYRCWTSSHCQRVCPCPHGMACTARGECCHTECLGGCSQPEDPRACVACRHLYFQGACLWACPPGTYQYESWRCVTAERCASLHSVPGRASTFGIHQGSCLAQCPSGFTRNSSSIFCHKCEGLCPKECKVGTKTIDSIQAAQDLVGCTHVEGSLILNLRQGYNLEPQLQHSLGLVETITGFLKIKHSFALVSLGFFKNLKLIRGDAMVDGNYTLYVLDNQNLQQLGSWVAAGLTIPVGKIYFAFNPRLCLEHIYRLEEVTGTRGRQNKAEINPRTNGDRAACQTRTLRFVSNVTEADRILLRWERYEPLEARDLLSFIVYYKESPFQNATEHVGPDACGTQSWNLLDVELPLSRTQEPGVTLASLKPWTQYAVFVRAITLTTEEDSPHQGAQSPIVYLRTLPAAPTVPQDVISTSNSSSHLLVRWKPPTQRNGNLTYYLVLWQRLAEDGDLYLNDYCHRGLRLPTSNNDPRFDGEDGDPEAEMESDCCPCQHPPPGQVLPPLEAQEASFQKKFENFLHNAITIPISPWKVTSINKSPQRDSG
Sequence of Insulin receptor-related protein (Homo sapiens) (P14616 747-1297 limits assumed): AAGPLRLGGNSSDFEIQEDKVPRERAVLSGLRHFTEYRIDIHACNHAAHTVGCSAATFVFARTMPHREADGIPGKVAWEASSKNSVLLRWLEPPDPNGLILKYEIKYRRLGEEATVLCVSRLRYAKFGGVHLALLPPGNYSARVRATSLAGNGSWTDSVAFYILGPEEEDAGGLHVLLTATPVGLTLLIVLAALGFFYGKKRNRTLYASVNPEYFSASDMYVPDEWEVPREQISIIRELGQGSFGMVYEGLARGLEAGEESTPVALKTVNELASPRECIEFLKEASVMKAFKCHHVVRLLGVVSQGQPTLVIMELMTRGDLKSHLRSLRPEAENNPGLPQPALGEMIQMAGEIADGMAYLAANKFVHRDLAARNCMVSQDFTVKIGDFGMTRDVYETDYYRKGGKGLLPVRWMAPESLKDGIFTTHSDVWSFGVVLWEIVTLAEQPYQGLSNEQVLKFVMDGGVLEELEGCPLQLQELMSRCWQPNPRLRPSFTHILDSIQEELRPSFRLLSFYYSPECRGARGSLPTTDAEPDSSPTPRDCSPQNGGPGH

C[C@H](c1cccc(C#N)c1)n1cc(Cl)cc(C(N)=O)c1=N [(R)-9s]
residual activity [1]: 78% | residual activity [2]: 100% | residual activity [3]: 86% | residual activity [4]: 84% | residual activity [5]: 96% | residual activity [6]: 92% | residual activity [7]: 100% | residual activity [8]: 99% | residual activity [9]: 78% | residual activity [10]: 100% | residual activity [11]: 42% | residual activity [12]: 100% | residual activity [13]: 90% | residual activity [14]: 95% | residual activity [15]: 79% | residual activity [16]: 81% | residual activity [17]: 73% | residual activity [18]: 74% | residual activity [19]: 100% | residual activity [20]: 100% | residual activity [21]: 85% | residual activity [22]: 87% | residual activity [23]: 100% | residual activity [24]: 88% | residual activity [25]: 100% | residual activity [26]: 92% | residual activity [27]: 100% | residual activity [28]: 77% | residual activity [29]: 100% | residual activity [30]: 98% | residual activity [31]: 89% | residual activity [32]: 100% | residual activity [33]: 91% | residual activity [34]: 83% | residual activity [35]: 95% | residual activity [36]: 100% | residual activity [37]: 100% | residual activity [38]: 100% | residual activity [39]: 64% | residual activity [40]: 88% | residual activity [41]: 100% | inhibition [42]: 34.1% | inhibition [43]: 7.03% | inhibition [44]: 10.7% | inhibition [45]: 10.8%

C[C@@H](c1cccc(C#N)c1)n1cc(Cl)cc(C(N)=O)c1=N [(S)-9s]
residual activity [1]: 85% | residual activity [2]: 100% | residual activity [3]: 86% | residual activity [4]: 91% | residual activity [5]: 100% | residual activity [6]: 82% | residual activity [7]: 100% | residual activity [8]: 100% | residual activity [9]: 85% | residual activity [10]: 100% | residual activity [11]: 65% | residual activity [12]: 100% | residual activity [13]: 82% | residual activity [14]: 100% | residual activity [15]: 100% | residual activity [16]: 80% | residual activity [17]: 67% | residual activity [18]: 78% | residual activity [19]: 99% | residual activity [20]: 100% | residual activity [21]: 100% | residual activity [22]: 84% | residual activity [23]: 96% | residual activity [24]: 94% | residual activity [25]: 86% | residual activity [26]: 100% | residual activity [27]: 100% | residual activity [28]: 89% | residual activity [29]: 98% | residual activity [30]: 100% | residual activity [31]: 98% | residual activity [32]: 100% | residual activity [33]: 82% | residual activity [34]: 99% | residual activity [35]: 95% | residual activity [36]: 100% | residual activity [37]: 100% | residual activity [38]: 100% | residual activity [39]: 75% | residual activity [40]: 93% | residual activity [41]: 100% | inhibition [42]: 3.77% | inhibition [43]: -3.38% | inhibition [44]: 16.1% | inhibition [45]: 8.25%
